Experimental data published in patent publication US8058306B2, “Phenyl pyrrole aminoguanidine derivatives” (Action Pharma A/S, priority 2006, dated 2011).

Key:
[1] = target: T1, human MC5 receptor (Homo sapiens, UniProt P33032); test: [125I]-NDP-MSH radio-ligand binding, MC5 (h) receptor (recombinant CHO cells); conditions: 60 min/37° C.
T1 construct: expressed in transfected cells; host or cells: CHO cells
Experimental: (§1) Determination of binding affinities for MC receptors was performed by [^125I]-[Nle4,D-Phe7]α-MSH ([^125I]-NDP-MSH) radio-ligand binding. In short, murine B16-F1 melanoma cells expressing MC1, but not other MC receptors, were used for binding affinity studies against the murine MC1 receptor (Siegrist et al.; 1988, J. Recept. Res., 8(1-4):323-43). For human MC3, MC4 and MC5 receptor affinities human recombinant CHO cells were used (Schioth et al. 1997, Neuropeptides 31:565-71, 1997). Cells were suspended in HEPES buffer and by use of microwell plates radio-ligands, as well as test compound, in the concentration range of 10^−10 to 10^−6 were added. After incubation at 37° C. (22° C. for the MC1 receptor assay) separation of bound and free [^125I]-NDP-MSH was done by multiple washings with buffer.
(§2) The results were expressed as a percent of control specific binding obtained in the presence of the test compounds. The IC50 values (concentration causing a half-maximal inhibition of control specific binding) and Hill coefficients (nH) were determined by non-linear regression analysis of the competition curves using Hill equation curve fitting. The inhibition constants (Ki) were calculated from the Cheng Prusoff equation (Ki=IC50/(1+(L/KD)), where L=concentration of radio-ligand in the assay, and KD=affinity of the radio-ligand for the receptor).

[2] = target: T2, murine MC1 receptor (Mus musculus, UniProt Q01727); test: [125I]-NDP-MSH radio-ligand binding, MC1 receptor (B16-F1 melanoma cells); conditions: 90 min/22° C.
T2 construct: murine B16-F1 melanoma cells expressing MC1, but not other MC receptors, were used; endogenous in cells; host or cells: murine B16-F1 melanoma cells
Experimental: as §1, §2

[3] = target: T3, human MC4 receptor (Homo sapiens, UniProt P32245); test: [125I]-NDP-MSH radio-ligand binding, MC4 (h) receptor (recombinant CHO cells); conditions: 120 min/37° C.
T3 construct: expressed in transfected cells; host or cells: CHO cells
Experimental: as §1, §2

[4] = target: T4, human MC3 receptor (Homo sapiens, UniProt P41968); test: [125I]-NDP-MSH radio-ligand binding, MC3 (h) receptor (recombinant CHO cells); conditions: 60 min/37° C.
T4 construct: expressed in transfected cells; host or cells: CHO cells
Experimental: as §1, §2

Measured: Ki

T1 sequence (P33032 whole entry): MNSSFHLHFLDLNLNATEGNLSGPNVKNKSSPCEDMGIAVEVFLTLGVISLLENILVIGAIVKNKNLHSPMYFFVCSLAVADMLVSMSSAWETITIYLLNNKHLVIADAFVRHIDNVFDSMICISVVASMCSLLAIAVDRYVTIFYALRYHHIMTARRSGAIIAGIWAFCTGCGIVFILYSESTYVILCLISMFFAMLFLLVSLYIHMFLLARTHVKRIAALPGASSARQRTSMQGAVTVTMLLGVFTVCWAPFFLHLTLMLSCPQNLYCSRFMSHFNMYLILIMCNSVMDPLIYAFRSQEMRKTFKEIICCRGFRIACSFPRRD
T2 sequence (Q01727 whole entry): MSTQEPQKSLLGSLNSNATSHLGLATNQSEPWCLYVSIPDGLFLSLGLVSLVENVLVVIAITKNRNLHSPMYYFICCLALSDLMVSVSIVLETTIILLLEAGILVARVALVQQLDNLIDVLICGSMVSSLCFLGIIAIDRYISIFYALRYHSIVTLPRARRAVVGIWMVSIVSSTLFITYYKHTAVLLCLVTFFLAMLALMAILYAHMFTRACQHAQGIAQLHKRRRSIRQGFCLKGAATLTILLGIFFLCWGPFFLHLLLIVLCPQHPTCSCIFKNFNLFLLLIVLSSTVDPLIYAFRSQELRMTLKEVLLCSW
T4 sequence (P41968 whole entry): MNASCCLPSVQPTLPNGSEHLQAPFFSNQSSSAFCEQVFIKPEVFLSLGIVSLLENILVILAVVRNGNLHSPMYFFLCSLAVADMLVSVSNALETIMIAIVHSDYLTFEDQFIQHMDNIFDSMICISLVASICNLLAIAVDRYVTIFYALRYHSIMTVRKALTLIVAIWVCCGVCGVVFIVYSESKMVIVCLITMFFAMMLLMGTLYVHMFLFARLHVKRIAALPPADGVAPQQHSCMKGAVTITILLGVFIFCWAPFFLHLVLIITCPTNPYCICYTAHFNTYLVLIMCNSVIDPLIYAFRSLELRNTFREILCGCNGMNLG
T3 sequence (P32245 whole entry): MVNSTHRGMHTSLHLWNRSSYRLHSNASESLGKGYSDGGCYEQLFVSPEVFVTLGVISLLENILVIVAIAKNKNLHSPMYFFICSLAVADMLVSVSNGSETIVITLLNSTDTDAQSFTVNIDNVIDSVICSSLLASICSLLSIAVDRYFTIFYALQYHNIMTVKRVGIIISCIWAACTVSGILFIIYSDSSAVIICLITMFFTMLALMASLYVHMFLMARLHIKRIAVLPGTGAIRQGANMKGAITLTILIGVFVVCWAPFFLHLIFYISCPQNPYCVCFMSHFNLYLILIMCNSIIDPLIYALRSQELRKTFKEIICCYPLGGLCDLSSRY

N=C(N)NN=Cc1cccn1-c1ccc(Cl)cc1 [Reference-compound 1, [1-[4-chlorophenyl)-1H-pyrrol-2-yl-methyleneamino]guanidinium acetate, reference compound]
> 1 µM: all assays above

N=C(N)NN=Cc1cccn1-c1ccccc1[N+](=O)[O-] [Reference-compound 2, [1-[2-nitrophenyl)-1H-pyrrol-2-yl-methyleneamino]guanidinium acetate, reference compound]
> 1 µM: all assays above
